Data reported in patent publication US20150005288A1, “SUBSTITUTED PHENYLIMIDAZOPYRAZOLES AND USE THEREOF” (Bayer Intellectual Property GmbH, priority 2012, published 2015).

What follows are molecules tested against T1, intracellular domain of human Tie2 (GST fusion protein) (Homo sapiens, UniProt Q02763) (assay: Tie2 kinase assay (Tie2-TR-FRET)). Details: ATP concentration 1 mM, in some cases means of several independent determinations.
T1 construct: intracellular domain of human Tie2 (amino acids 776-1124); made in house; host or cells: Baculovirus-infected insect cells (Hi5)
T1 sequence (Q02763 776-1124): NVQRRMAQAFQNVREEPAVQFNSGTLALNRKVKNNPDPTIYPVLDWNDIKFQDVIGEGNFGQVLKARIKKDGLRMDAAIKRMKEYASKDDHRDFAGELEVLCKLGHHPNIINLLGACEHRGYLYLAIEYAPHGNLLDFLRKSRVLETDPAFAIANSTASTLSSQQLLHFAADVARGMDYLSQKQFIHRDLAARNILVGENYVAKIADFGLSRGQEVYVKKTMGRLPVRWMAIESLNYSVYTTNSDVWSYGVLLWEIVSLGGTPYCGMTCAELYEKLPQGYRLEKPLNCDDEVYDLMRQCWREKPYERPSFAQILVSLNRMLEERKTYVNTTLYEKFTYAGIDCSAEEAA
Type: biochemical
In short: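 High ATP (1 mM final) with 1 μM biotin-peptide substrate; reaction 60 min at 22 °C after 15 min compound pre-binding to GST-Tie2 (aa 776-1124) in HEPES pH 7 with Mg/Mn. Phosphopeptide detected by TR-FRET emission ratio 665/620 nm. IC50 from 4-parameter fit over 20 μM to 0.073 nM, duplicates.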

Row | Compound | IC50 [nM]
1 | Cc1ccc(NC(=O)c2cc(C#N)cc(S(F)(F)(F)(F)F)c2)cc1-n1ccn2nc(-c3cccnc3)cc12 [Example 28, 3-Cyano-N-{4-methyl-3-[6-(pyridin-3-yl)-1H-imidazo[1,2-b]pyrazol-1-yl]phenyl}-5-(pentafluoro-λ^6-sulphanyl)benzamide] | 2.1
2 | COCc1cc(C(=O)Nc2cc(-n3ccn4nc(-c5cccnc5)cc34)c(C)cc2C)cc(S(F)(F)(F)(F)F)c1 [Example 112, N-{2,4-Dimethyl-5-[6-(pyridin-3-yl)-1H-imidazo[1,2-b]pyrazol-1-yl]phenyl}-3-(methoxymethyl)-5-(pentafluoro-λ^6-sulphanyl)benzamide] | 0.7
3 | Cc1ccc(NC(=O)c2cc(C(C)(C)O)cc(S(F)(F)(F)(F)F)c2)cc1-n1ccn2nc(-c3cn[nH]c3)cc12 [Example 4, 3-(2-Hydroxypropan-2-yl)-N-{4-methyl-3-[6-(1H-pyrazol-4-yl)-1H-imidazo[1,2-b]pyrazol-1-yl]-phenyl}-5-(pentafluoro-λ^6-sulphanyl)benzamide] | 0.6
4 | Cc1cc(C)c(-n2ccn3nc(-c4cccnc4)cc23)cc1NC(=O)c1cc(N2CCCCC2)cc(S(F)(F)(F)(F)F)c1 [Example 143, N-{2,4-Dimethyl-5-[6-(pyridin-3-yl)-1H-imidazo[1,2-b]pyrazol-1-yl]phenyl}-3-(pentafluoro-λ^6-sulphanyl)-5-(piperidin-1-yl)benzamide] | 1.3
5 | Cc1ccc(NC(=O)c2ccnc(C(C)(C)C)c2)cc1-n1ccn2nc(-c3cccnc3)cc12 [Example 64, 2-tert-Butyl-N-{4-methyl-3-[6-(pyridin-3-yl)-1H-imidazo[1,2-b]pyrazol-1-yl]phenyl}isonicotinamide] | 41
6 | Cc1cc(C)c(-n2ccn3nc(-c4cccnc4)cc23)cc1NC(=O)c1cc(Cl)cc(S(F)(F)(F)(F)F)c1 [Example 108, 3-Chloro-N-{2,4-dimethyl-5-[6-(pyridin-3-yl)-1H-imidazo[1,2-b]pyrazol-1-yl]phenyl}-5-(pentafluoro-λ^6-sulphanyl)benzamide] | 0.7
7 | COC1CCN(c2cc(C(=O)Nc3cc(-n4ccn5nc(-c6cccnc6)cc45)c(C)cc3C)cc(S(F)(F)(F)(F)F)c2)CC1 [Example 145, N-{2,4-Dimethyl-5-[6-(pyridin-3-yl)-1H-imidazo[1,2-b]pyrazol-1-yl]phenyl}-3-(4-methoxypiperidin-1-yl)-5-(pentafluoro-λ^6-sulphanyl)benzamide] | 0.9
8 | Cc1ccc(NC(=O)c2cc(C(N)=O)cc(S(F)(F)(F)(F)F)c2)cc1-n1ccn2nc(-c3cccnc3)cc12 [Example 29, N-{4-Methyl-3-[6-(pyridin-3-yl)-1H-imidazo[1,2-b]pyrazol-1-yl]phenyl}-5-(pentafluoro-λ^6-sulphanyl)isophthalamide] | 2
9 | Cc1cc(NC(=O)c2cccc(S(F)(F)(F)(F)F)c2)cc(-n2ccn3nc(-c4cccnc4)cc23)c1C [Example 100, N-{3,4-Dimethyl-5-[6-(pyridin-3-yl)-1H-imidazo[1,2-b]pyrazol-1-yl]phenyl}-3-(pentafluoro-λ^6-sulphanyl)benzamide] | 175
10 | Cc1ccc(NC(=O)c2cc(F)cc(S(F)(F)(F)(F)F)c2)cc1-n1ccn2nc(-c3cncs3)cc12 [Example 173, 3-Fluoro-N-{4-methyl-3-[6-(1,3-thiazol-5-yl)-1H-imidazo[1,2-b]pyrazol-1-yl]phenyl}-5-(pentafluoro-λ^6-sulphanyl)benzamide] | 9.3
11 | Cc1ccc(NC(=O)c2cc(C3(O)CNC3)cc(S(F)(F)(F)(F)F)c2)cc1-n1ccn2nc(-c3cccnc3)cc12 [Example 37, 3-(3-Hydroxyazetidin-3-yl)-N-{4-methyl-3-[6-(pyridin-3-yl)-1H-imidazo[1,2-b]pyrazol-1-yl]-phenyl}-5-(pentafluoro-λ^6-sulphanyl)benzamide bis(trifluoroacetate)] | 0.4
12 | Cc1cc(C)c(-n2ccn3nc(-c4cccnc4)cc23)cc1NC(=O)c1cc(N2CCC(C#N)CC2)cc(S(F)(F)(F)(F)F)c1 [Example 144, 3-(4-Cyanopiperidin-1-yl)-N-{2,4-dimethyl-5-[6-(pyridin-3-yl)-1H-imidazo[1,2-b]pyrazol-1-yl]-phenyl}-5-(pentafluoro-λ^6-sulphanyl)benzamide] | 0.6
13 | COc1cc(OC)cc(C(=O)Nc2ccc(C)c(-n3ccn4nc(-c5cccnc5)cc34)c2)c1 [Example 63, 3,5-Dimethoxy-N-{4-methyl-3-[6-(pyridin-3-yl)-1H-imidazo[1,2-b]pyrazol-1-yl]phenyl}benzamide] | 770
14 | Cc1cc(C)c(-n2ccn3nc(-c4cccnc4)cc23)cc1NC(=O)c1cc(Br)cc(C(C)(C)C)c1 [Example 113, 3-Bromo-5-tert-butyl-N-{2,4-dimethyl-5-[6-(pyridin-3-yl)-1H-imidazo[1,2-b]pyrazol-1-yl]-phenyl}benzamide] | 0.6
15 | Cc1ccc(NC(=O)c2ccnc(N3CCCC3)c2)cc1-n1ccn2nc(-c3cccnc3)cc12 [Example 67, N-{4-Methyl-3-[6-(pyridin-3-yl)-1H-imidazo[1,2-b]pyrazol-1-yl]phenyl}-2-(pyrrolidin-1-yl)-pyridine-4-carboxamide] | 57
16 | Cc1ccc(NC(=O)c2cc(CN3CC[C@H](O)C3)cc(S(F)(F)(F)(F)F)c2)cc1-n1ccn2nc(-c3cccnc3)cc12 [Example 34, 3-{[(3S)-3-Hydroxypyrrolidin-1-yl]methyl}-N-{4-methyl-3-[6-(pyridin-3-yl)-1H-imidazo[1,2-b]-pyrazol-1-yl]phenyl}-5-(pentafluoro-λ^6-sulphanyl)benzamide] | 2.1
17 | Cc1cc(F)c(NC(=O)c2cc(C#N)cc(C(C)(C)C)c2)cc1-n1ccn2nc(-c3cccnc3)cc12 [Example 118, 3-tert-Butyl-5-cyano-N-{2-fluoro-4-methyl-5-[6-(pyridin-3-yl)-1H-imidazo[1,2-b]pyrazol-1-yl]-phenyl}benzamide] | 0.4
18 | Cc1ccc(NC(=O)c2cc(C(C)C)ccc2O)cc1-n1ccn2nc(-c3cccnc3)cc12 [Example 53, 2-Hydroxy-N-{4-methyl-3-[6-(pyridin-3-yl)-1H-imidazo[1,2-b]pyrazol-1-yl]phenyl}-5-(propan-2-yl)benzamide] | 340
19 | Cc1ccc(NC(=O)c2cc(Cl)cc(S(F)(F)(F)(F)F)c2)cc1-n1ccn2nc(-c3cncs3)cc12 [Example 174, 3-Chloro-N-{4-methyl-3-[6-(1,3-thiazol-5-yl)-1H-imidazo[1,2-b]pyrazol-1-yl]phenyl}-5-(pentafluoro-λ^6-sulphanyl)benzamide] | 2.8
20 | Cc1ccc(NC(=O)c2cc(CN3CCCC3)cc(C(C)(C)C)c2)cc1-n1ccn2nc(-c3cn[nH]c3)cc12 [Example 9, 3-tert-Butyl-N-{4-methyl-3-[6-(1H-pyrazol-4-yl)-1H-imidazo[1,2-b]pyrazol-1-yl]phenyl}-5-(pyrrolidin-1-ylmethyl)benzamide] | 6.7

The molecules below were run against T2, endogenous Tie2 receptor (Homo sapiens, UniProt Q02763) (assay: Tie2-pTyr-ELISA: autophosphorylation of endogenous Tie2 receptor in HUVEC). Details: autophosphorylation elevated by sodium orthovanadate (4 mM), Tie2/phosphotyrosine sandwich ELISA, from 2-7 independent measurements.
T2 construct: the endogenous Tie2 receptor; host or cells: HUVEC (human umbilical vein endothelial cells)
T2 sequence (Q02763 23-1124): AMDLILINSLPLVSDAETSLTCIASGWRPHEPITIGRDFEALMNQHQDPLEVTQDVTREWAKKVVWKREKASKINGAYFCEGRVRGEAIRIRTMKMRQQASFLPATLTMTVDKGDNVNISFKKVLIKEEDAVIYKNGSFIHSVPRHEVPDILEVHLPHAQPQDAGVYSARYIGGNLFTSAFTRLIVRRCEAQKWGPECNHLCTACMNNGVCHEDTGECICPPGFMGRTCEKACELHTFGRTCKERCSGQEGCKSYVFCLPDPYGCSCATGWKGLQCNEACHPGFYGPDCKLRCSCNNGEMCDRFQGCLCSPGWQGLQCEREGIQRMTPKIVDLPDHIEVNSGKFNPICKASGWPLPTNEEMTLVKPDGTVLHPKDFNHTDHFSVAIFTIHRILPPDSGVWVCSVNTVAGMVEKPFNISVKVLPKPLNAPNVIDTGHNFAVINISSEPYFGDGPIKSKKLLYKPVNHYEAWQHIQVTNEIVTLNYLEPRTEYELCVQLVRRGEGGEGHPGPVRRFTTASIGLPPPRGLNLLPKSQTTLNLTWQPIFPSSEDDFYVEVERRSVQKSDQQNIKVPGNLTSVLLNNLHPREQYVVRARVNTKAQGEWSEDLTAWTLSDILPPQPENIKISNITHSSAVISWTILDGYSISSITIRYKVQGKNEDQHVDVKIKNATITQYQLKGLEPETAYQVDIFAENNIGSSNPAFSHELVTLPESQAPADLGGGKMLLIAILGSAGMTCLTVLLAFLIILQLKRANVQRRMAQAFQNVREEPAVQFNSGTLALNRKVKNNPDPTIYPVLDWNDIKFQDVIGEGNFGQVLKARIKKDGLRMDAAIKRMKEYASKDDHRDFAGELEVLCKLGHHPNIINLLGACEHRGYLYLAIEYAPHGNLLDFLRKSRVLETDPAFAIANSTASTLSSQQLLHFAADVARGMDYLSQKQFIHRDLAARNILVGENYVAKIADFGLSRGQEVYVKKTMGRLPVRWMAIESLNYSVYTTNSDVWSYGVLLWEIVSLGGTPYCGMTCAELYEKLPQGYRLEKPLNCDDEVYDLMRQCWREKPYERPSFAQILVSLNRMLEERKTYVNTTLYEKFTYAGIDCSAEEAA
Type: cell-based
Procedure: The cellular activity of the compounds according to the invention as Tie2 kinase inhibitors was determined in human endothelial cells (HUVEC) by measuring the inhibition of the autophosphorylation, elevated by treatment with sodium orthovanadate, of the endogenous Tie2 receptor by means of a Tie2/phosphotyrosine sandwich ELISA.
Human endothelial cells (human umbilical vein endothelial cells, HUVEC) were obtained from Cellsystems (FC-0003), cultured in Vasculife VEGF complete medium (Cellsystems, LL-1020) with 2% foetal calf serum (FCS) at 37° C./5% CO2 and used for Tie2-ELISA measurements up to passage 8.
HUVEC were plated in a culture volume of 100 μl of Vasculife VEGF complete medium at a cell density of 30 000 cells per well in transparent collagen-coated 96-well cell culture plates (Falcon, #353075) and incubated in an incubation cabinet at 37° C./5% CO2 overnight. The test substances dissolved in DMSO were used to prepare in each case one dilution series in Vasculife VEGF low-serum medium [basal medium with LifeFactors (Cellsystems, LM-0002), without FCS, with 0.1% BSA] without sodium orthovanadate and one dilution series in Vasculife VEGF low-serum-medium with 8 mM sodium orthovanadate in the desired concentrations in the range from 10 pM to 10 μM, the final DMSO concentration being 1%. After removal of the complete medium, 100 μl per well of the dilute substances in low-serum medium without sodium orthovanadate were pipetted onto the cells, and the plates were incubated in an incubation cabinet at 37° C./5% CO2 for 10 min. A further 100 μl of the same substance dilution in low-serum medium with 8 mM sodium orthovanadate were then pipetted into the respective well and the cells were incubated in a volume of now 200 μl in the presence of 4 mM sodium orthovanadate at the desired substance concentration in an incubation cabinet at 37° C./5% CO2 for a further 20 min. The cell supernatant of the plates was then removed and the cells were washed once with 250 μl per well of cold PBS which contained 4 mM sodium orthovanadate. 120 μl of Duschl lysis buffer [50 mM HEPES pH 7.2, 150 mM NaCl, 1 mM MgCl2, 10% glycerol, 1.5% Triton X-100, 4 mM sodium orthovanadate, 250 μl S-PIC phosphatase inhibitor cocktail 2 (Sigma, P5726) and 1 tablet of Complete proteinase inhibitor mixture (Roche, #1836145) per 10 ml] were then added to the cells in each well. The plates were shaken briefly and then incubated on ice for 20 min, and the lysates in the cell culture plates were then frozen at −80° C. for at least 30 min.
For measuring the autophosphorylation of the endogenous Tie2 receptor in the cell lysates prepared, a self-prepared anti-Tie2 antibody directed against the N-terminus of the Tie-2 receptor (1.09 mg/ml) and an HRP-coupled anti-phosphotyrosine antibody (Sigma, A4595, clone pY-20) were used. White 96-well ELISA plates (Lumitrac600, Greiner, #655074) were incubated with 100 μl per well of a 1:1000 dilution of the anti-Tie2 antibody in coating buffer [15 mM Na2CO3, 35 mM NaHCO3, pH 9.6] with shaking at 4° C. overnight. The coated ELISA plates were washed three times with 250 μl PBST buffer [0.1% Tween-20 in PBS], the wells were blocked with 250 μl 3% BSA in PBST buffer with shaking at RT for 1-6 h and washed three more times with 250 μl PBST buffer. From the cell lysate plates thawed in the fridge, in each case 100 μl of lysate were transferred into the coated wells of the ELISA plates, and the plates were incubated with shaking at 4° C. overnight. The plates were washed three times with in each case 250 μl of PBST buffer, and 100 μl of a 1:5000 dilution of the anti-phosphotyrosine HRP antibody in 3% Prionex (Calbiochem, #529600) in PBST were then pipetted into each well and the plates were incubated with shaking and protected from light at 4° C. overnight. […]

Row | Compound | IC50 [nM]
21 | Cc1ccc(NC(=O)c2cc(C#N)cc(S(F)(F)(F)(F)F)c2)cc1-n1ccn2nc(-c3cccnc3)cc12 [Example 28, 3-Cyano-N-{4-methyl-3-[6-(pyridin-3-yl)-1H-imidazo[1,2-b]pyrazol-1-yl]phenyl}-5-(pentafluoro-λ^6-sulphanyl)benzamide] | 3.6
22 | COCc1cc(C(=O)Nc2cc(-n3ccn4nc(-c5cccnc5)cc34)c(C)cc2C)cc(S(F)(F)(F)(F)F)c1 [Example 112, N-{2,4-Dimethyl-5-[6-(pyridin-3-yl)-1H-imidazo[1,2-b]pyrazol-1-yl]phenyl}-3-(methoxymethyl)-5-(pentafluoro-λ^6-sulphanyl)benzamide] | 1.4
23 | Cc1ccc(NC(=O)c2cc(C(C)(C)O)cc(S(F)(F)(F)(F)F)c2)cc1-n1ccn2nc(-c3cn[nH]c3)cc12 [Example 4, 3-(2-Hydroxypropan-2-yl)-N-{4-methyl-3-[6-(1H-pyrazol-4-yl)-1H-imidazo[1,2-b]pyrazol-1-yl]-phenyl}-5-(pentafluoro-λ^6-sulphanyl)benzamide] | 4.7
